Where only a bound is given, the exact number is not on record here.

Experiment [1] relates to CA-MRSA USA300. Description: Checkerboard (FIC) analysis against CA-MRSA USA300. The settings on record: for drug-drug interaction with cefuroxime (checkerboard secondary screen): in combination with cefuroxime. The format is cell-based, Staphylococcus aureus. The protocol:
Here a matrix of drug concentrations were tested in combinations at the concentrations shown (μg/mL). Greyscale indicates growth—darker is more growth, lighter is less growth. FIC index is a measure of synergy and is calculated as follows: FIC index=FIC (cefuroxime)+FIC (drug compound).
The combination of ticlopidine and cefuroxime was further tested as above against a variety of S. aureus strains as shown in Table 1 below.
FIC index=FIC (β-lactam)+FTC (ticlopidine). […]

Experiment [2] concerns S. aureus (Newman strain). The experiment in a line: Checkerboard (FIC) analysis against S. aureus Newman. The format is cell-based, Staphylococcus aureus. Particulars: antibiotic in combination with ticlopidine; S. aureus (Newman strain).
[3] abbreviates: antibiotic in combination with ticlopidine, CA-MRSA USA 300, FIC (β-lactam)+FIC (ticlopidine).

As for `CC1(C)S[C@@H]2[C@H](NC(=O)Cc3ccccc3)C(=O)N2[C@H]1C(=O)O` [Penicillin G], the FIC index result in experiment [1] (setting [3]) is recorded as “≦0.5”. Take `CC[C@H]1OC(=O)[C@H](C)[C@@H](O[C@H]2C[C@@](C)(OC)[C@@H](O)[C@H](C)O2)[C@H](C)[C@@H](O[C@@H]2O[C@H](C)C[C@H](N(C)C)[C@H]2O)[C@](C)(OC)C[C@@H](C)C(=O)[C@H](C)[C@@H](O)[C@]1(C)O` [Clarithromycin]: the FIC index entry in experiment [2] is given as “≦2”. Regarding `CC1(C)S[C@@H]2[C@H](NC(=O)[C@H](N)c3ccccc3)C(=O)N2[C@H]1C(=O)O` [Ampicillin], the FIC index result in experiment [1] (setting [3]) is on record as “≦0.5”; in experiment [2], “≦1”. Consider `C[C@@H](O)[C@H]1C(=O)N2C(C(=O)O)=C(S[C@@H]3CN[C@H](C(=O)N(C)C)C3)[C@H](C)[C@H]12` [Meropenem], for which the FIC index entry in experiment [1] (setting [3]) was “≦0.75”. Take Polymyxin: in experiment [2], the FIC index result is reported as “≦0.5”. Turning to `CC(C)(O/N=C(\C(=O)N[C@@H]1C(=O)N2C(C(=O)[O-])=C(C[n+]3ccccc3)CS[C@H]12)c1csc(N)n1)C(=O)O` [Ceftazidime], the FIC index result in experiment [1] (setting [3]) was “≦2”; in experiment [2] it was “≦1”. For `NC[C@H]1O[C@H](O[C@H]2[C@H](O)[C@@H](O[C@H]3O[C@H](CO)[C@@H](O)[C@H](N)[C@H]3O)[C@H](N)C[C@@H]2N)[C@H](N)C[C@@H]1O` [Tobramycin], in experiment [2], the FIC index result is recorded as “≦2”. With `CCOc1ccc2ccccc2c1C(=O)N[C@@H]1C(=O)N2[C@@H]1SC(C)(C)[C@@H]2C(=O)O` [Nafcillin], the FIC index result in experiment [1] (setting [3]) is “≦0.5”; in experiment [2] it was “≦1”.

Regarding `CO/N=C(\C(=O)N[C@@H]1C(=O)N2C(C(=O)O)=C(COC(C)=O)CS[C@H]12)c1csc(N)n1` [Ceftoxamine], the FIC index result in experiment [2] is “≦1”. On to `NC(=O)c1cc[n+](CC2=C(C(=O)O)N3C(=O)[C@@H](NC(=O)[C@@H](c4ccccc4)S(=O)(=O)[O-])[C@H]3SC2)cc1` [Cefsulodin], for which the figures for the FIC index result in experiment [1] (setting [3]) and in experiment [2] were “≦2” and “≦1”, respectively. On to `CC1=C(C(=O)O)N2C(=O)[C@@H](NC(=O)[C@H](N)c3ccc(O)cc3)[C@H]2SC1` [Cefadroxil], for which the FIC index entry in experiment [1] (setting [3]) is “≦2”. Consider `N[C@@H]1CONC1=O` [D-cycloserine], for which, in experiment [2], the FIC index result is “≦2”. On the same count and under the same terms, the entry for Tunicamycin is “≦0.75”. `CC(=O)Oc1cc2c(s1)CCN(C(C(=O)C1CC1)c1ccccc1F)C2` (racemic) [Prasugrel, (RS)-5-[2-cyclopropyl-1-(2-fluorophenyl)-2-oxoethyl]-4,5,6,7-tetrahydrothieno[3,2-c]pyridin-2-yl acetate]: in experiment [1] (Staphylococcus aureus, read-out: MIC thienopyridine), the MIC was above 128 µg/mL. In addition, the FIC thienopyridine in experiment [1] (in the presence of cefuroxime, CA-MRSA USA300 (Table 4)) turned out to be 0.25. Moreover, the “FIC index” value was “≦0.50” in experiment [1] (thienopyridine in combination with cefuroxime, CA-MRSA USA300 (Table 4)) and at most 0.50 in experiment [1] (thienopyridine in combination with cefuroxime, CA-MRSA USA300 (Table 4), listed as prasugrel).

For the molecule `COc1cc(Cc2cnc(N)nc2N)cc(OC)c1OC` [Trimethoprim], in experiment [2], the FIC index result is on record as “≦2”. On the same count and under the same terms, the entry for `CC(=O)OCC1=C(C(=O)O)N2C(=O)[C@@H](NC(=O)CCC[C@@H](N)C(=O)O)[C@H]2SC1` [Cephalosporin C] is “≦0.75”. `CC(=O)OCC1=C(C(=O)O)N2C(=O)[C@@H](NC(=O)Cc3cccs3)[C@H]2SC1` [Cephalothin]: the FIC index entry in experiment [1] (setting [3]) is given as “≦0.5”. Still for that read-out and setting: the entry for `Cc1onc(-c2ccccc2Cl)c1C(=O)N[C@@H]1C(=O)N2[C@@H]1SC(C)(C)[C@@H]2C(=O)O` [Cloxacillin] is “≦0.5”.

`CN(C)CCC(c1ccc(Cl)cc1)c1ccccn1` (stereo not drawn) [chlorpheniramine]: in experiment [1], the “drug-drug interaction with cefuroxime (checkerboard secondary screen)” value is reported as “synergistic interactions”. With `C[C@H]1COc2c(N3CCN(C)CC3)c(F)cc3c(=O)c(C(=O)O)cn1c23` [Levofloxacin], the FIC index result in experiment [2] was “≦2”. The same measure, in the same setting: the entry for `O=C(O)c1cn(C2CC2)c2cc(N3CCNCC3)c(F)cc2c1=O` [Ciprofloxacin] is “≦2”. On to `C[C@@H]1O[C@@H]1P(=O)(O)O` [Fosfomycin], for which, in experiment [2], the FIC index result was “≦0.5”.

For `CN[C@H](CC(C)C)C(=O)N[C@H]1C(=O)N[C@@H](CC(N)=O)C(=O)N[C@H]2C(=O)N[C@H]3C(=O)N[C@H](C(=O)N[C@H](C(=O)O)c4cc(O)cc(O)c4-c4cc3ccc4O)[C@H](O)c3ccc(c(Cl)c3)Oc3cc2cc(c3O[C@@H]2O[C@H](CO)[C@@H](O)[C@H](O)[C@H]2O[C@H]2C[C@](C)(N)[C@H](O)[C@H](C)O2)Oc2ccc(cc2Cl)[C@H]1O` [Vancomycin], in experiment [2], the FIC index entry was “≦2”. `CO/N=C(\C(=O)N[C@@H]1C(=O)N2C(C(=O)O)=CCS[C@H]12)c1csc(N)n1` [Ceftizoxime]: the FIC index entry in experiment [1] (setting [3]) is listed as “≦0.5”. Turning to `N[C@@H](C(=O)N[C@@H]1C(=O)N2C(C(=O)O)=C(Cl)CS[C@H]12)c1ccccc1` [Cefaclor], the FIC index result in experiment [1] (setting [3]) is “≦0.5”; in experiment [2], “≦1”.

Take `CO[C@@]1(NC(=O)CSCC#N)C(=O)N2C(C(=O)O)=C(CSc3nnnn3C)CS[C@@H]21` [Cefmetazole]: in experiment [2], the FIC index result is recorded as “≦0.75”. As for `CO[C@@]1(NC(=O)Cc2cccs2)C(=O)N2C(C(=O)O)=C(COC(N)=O)CS[C@@H]21` [Cefoxitin], the FIC index entry in experiment [1] (setting [3]) is “≦0.5”; in experiment [2], “≦0.75”.

Consider `COc1cccc(OC)c1C(=O)N[C@@H]1C(=O)N2[C@@H]1SC(C)(C)[C@@H]2C(=O)O` [Methicillin], for which the FIC index entry in experiment [1] (setting [3]) was “≦0.63”; in experiment [2], “≦1”.

For `CC1=C(C(=O)O)N2C(=O)[C@@H](NC(=O)[C@H](N)C3=CCC=CC3)[C@H]2SC1` [Cephradine], the FIC index result in experiment [1] (setting [3]) is “≦2”.

As for `CN1[C@@H]2CC[C@H]1C[C@@H](OC(c1ccccc1)c1ccccc1)C2` [Benztropine], the “drug-drug interaction with cefuroxime (checkerboard secondary screen)” value in experiment [1] is reported as “synergistic interactions”.

Consider `Cn1nnnc1SCC1=C(C(=O)O)N2C(=O)[C@@H](NC(=O)[C@H](O)c3ccccc3)[C@H]2SC1` [Cefamandole], for which the FIC index entry in experiment [1] (setting [3]) was “≦0.63”; in experiment [2], “≦0.75”. For `CCN1CCN(C(=O)N[C@@H](C(=O)N[C@@H]2C(=O)N3[C@@H]2SC(C)(C)[C@@H]3C(=O)O)c2ccccc2)C(=O)C1=O` [Piperacillin], in that order: “≦0.5” and “≦0.63”.

With `CCCCCCCCCC(=O)N[C@@H](Cc1c[nH]c2ccccc12)C(=O)N[C@H](CC(N)=O)C(=O)N[C@@H](CC(=O)O)C(=O)N[C@@H]1C(=O)NCC(=O)N[C@@H](CCCN)C(=O)N[C@@H](CC(=O)O)C(=O)N[C@H](C)C(=O)N[C@@H](CC(=O)O)C(=O)NCC(=O)N[C@H](CO)C(=O)N[C@@H]([C@H](C)CC(=O)O)C(=O)N[C@@H](CC(=O)c2ccccc2N)C(=O)O[C@@H]1C` [Daptomycin], in experiment [2], the FIC index entry is listed as “≦2”.

With `Cc1onc(-c2ccccc2)c1C(=O)N[C@@H]1C(=O)N2[C@@H]1SC(C)(C)[C@@H]2C(=O)O` [Oxacillin], the FIC index result in experiment [1] (setting [3]) is recorded as “≦0.5”; in experiment [2] it was “≦0.63”. For `CC1=C(C(=O)O)N2C(=O)[C@@H](NC(=O)[C@H](N)c3ccccc3)[C@H]2SC1` [Cephalexin], in that order: “≦0.75” and “≦1”.

As for `CO/N=C(\C(=O)N[C@@H]1C(=O)N2C(C(=O)O)=C(COC(C)=O)CS[C@H]12)c1csc(N)n1` [Cefotaxime], in experiment [1] (setting [3]), the FIC index result is “≦0.5”. For the molecule `CC[C@H]1OC(=O)[C@H](C)[C@@H](O[C@H]2C[C@@](C)(OC)[C@@H](O)[C@H](C)O2)[C@H](C)[C@@H](O[C@@H]2O[C@H](C)C[C@H](N(C)C)[C@H]2O)[C@](C)(O)C[C@@H](C)C(=O)[C@H](C)[C@@H](O)[C@]1(C)O` [Erythromycin], in experiment [2], the FIC index result is “≦2”.

For orientation: MIC means the lowest concentration found to suppress growth.
